Data published in article PMC7067379, “Mapping the S1 and S1’ subsites of cysteine proteases with new dipeptidyl nitrile inhibitors as trypanocidal agents” (PLoS Neglected Tropical Diseases, 2020).
Like-named read-outs stand apart in the source and are kept apart here.

Assays:
[1] = target: cathepsin B (CatB) (Homo sapiens, UniProt P07858); experiment: Cathepsin B enzyme inhibition; format: biochemical; conditions: for remaining activity at 10 µM: replicates = 2, n.i. = no inhibition observed at 10 μM; for Ki: SD lower than 15%, read-out: pKi CatB (converted)
[2] = target: T1, Human recombinant cathepsin K (Homo sapiens, UniProt P43235); experiment: Cathepsin K assay; format: biochemical; conditions: for Ki: SD lower than 15%, read-out: pKi CatK (converted); for remaining activity at 10 µM: replicates = 2, n.i. = no inhibition observed at 10 μM, read-out: remaining activity (%) at 10 μM, CatK
T1 sequence (P43235 115-329): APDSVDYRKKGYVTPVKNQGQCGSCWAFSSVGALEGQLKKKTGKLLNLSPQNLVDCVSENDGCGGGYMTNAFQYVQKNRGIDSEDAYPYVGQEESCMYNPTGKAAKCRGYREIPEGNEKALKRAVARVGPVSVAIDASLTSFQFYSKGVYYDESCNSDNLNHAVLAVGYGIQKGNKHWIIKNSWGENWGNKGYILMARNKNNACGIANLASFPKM
Procedure: Human recombinant cathepsin K was assayed on a FLUOSTAR Optima plate reader at 25 °C with an excitation wavelength of 360 nm and an emission wavelength of 440 nm on a 96 well plate. The enzyme solution (23 μg/mL in 50 mM sodium acetate pH 5.5, 50 mM NaCl, 0.5 mM EDTA, 5 mM DTT) was diluted 1:100 with assay buffer (100 mM sodium citrate buffer pH 5.0, 100 mM NaCl, 1 mM EDTA, 0.01% CHAPS) containing 5 mM DTT and was then incubated at 37 °C for 30 min for activation. A 1.5 mM stock solution of the substrate Z-Leu-Arg-AMC was prepared in DMSO. […] The assay was performed with a final concentration of cathepsin K of 1.73 ng/mL. Stock solutions of inhibitors were prepared in DMSO. The final DMSO concentration was 2% (4 μL). Into a well containing 194.5 μL assay buffer, 0.8 μL of the fluorogenic substrate, DMSO and inhibitor solution (3.2 μL) were added. Upon addition of cathepsin K (1.5 μL), the measurement was started and followed for 20 min.

[3] = target: cathepsin L (CatL) (Homo sapiens, UniProt P07711); experiment: Cathepsin L enzyme inhibition; format: biochemical; conditions: SD lower than 15%; for Ki: read-out: pKi CatL (converted)
Chain of cathepsin L (CatL) (P07711 114-333): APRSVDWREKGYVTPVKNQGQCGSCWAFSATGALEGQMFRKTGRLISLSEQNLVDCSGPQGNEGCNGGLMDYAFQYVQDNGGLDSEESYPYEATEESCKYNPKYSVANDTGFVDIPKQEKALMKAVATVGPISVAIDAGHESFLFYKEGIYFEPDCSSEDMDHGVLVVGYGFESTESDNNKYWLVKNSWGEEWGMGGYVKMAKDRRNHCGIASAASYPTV

[4] = target: cathepsin S (CatS) (Homo sapiens, UniProt P25774); experiment: Cathepsin S enzyme inhibition; format: biochemical; conditions: SD lower than 15%; read-out: pKi CatS (converted)
Chain of cathepsin S (CatS) (P25774 115-331): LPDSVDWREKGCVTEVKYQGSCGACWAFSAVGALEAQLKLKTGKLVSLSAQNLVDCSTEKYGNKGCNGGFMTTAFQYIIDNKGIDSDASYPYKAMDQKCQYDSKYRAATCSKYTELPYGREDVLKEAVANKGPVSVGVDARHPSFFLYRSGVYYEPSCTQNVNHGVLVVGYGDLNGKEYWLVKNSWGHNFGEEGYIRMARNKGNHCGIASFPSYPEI
Procedure: (§1) Enzyme inhibition studies for Cz and LmCPB were performed as previously described for Cz. The experimental procedures are described in the Supporting Information (see chapter S3). Cathepsins B, L, S were assayed as reported.

[5] = target: recombinant cruzain (Cz) (Trypanosoma cruzi, UniProt P25779); experiment: Cruzain enzyme inhibition; format: biochemical
Chain of recombinant cruzain (Cz) (P25779 123-337): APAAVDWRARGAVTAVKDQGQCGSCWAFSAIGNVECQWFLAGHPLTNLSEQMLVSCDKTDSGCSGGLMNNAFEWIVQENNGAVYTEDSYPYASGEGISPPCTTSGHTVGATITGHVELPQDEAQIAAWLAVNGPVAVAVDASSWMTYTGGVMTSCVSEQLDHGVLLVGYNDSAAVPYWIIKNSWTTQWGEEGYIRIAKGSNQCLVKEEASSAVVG
Procedure: as §1

[6] = target: Leishmania mexicana CPB (LmCPB) (Leishmania mexicana, UniProt P36400); experiment: LmCPB enzyme inhibition; format: biochemical
Chain of Leishmania mexicana CPB (LmCPB) (P36400 126-443): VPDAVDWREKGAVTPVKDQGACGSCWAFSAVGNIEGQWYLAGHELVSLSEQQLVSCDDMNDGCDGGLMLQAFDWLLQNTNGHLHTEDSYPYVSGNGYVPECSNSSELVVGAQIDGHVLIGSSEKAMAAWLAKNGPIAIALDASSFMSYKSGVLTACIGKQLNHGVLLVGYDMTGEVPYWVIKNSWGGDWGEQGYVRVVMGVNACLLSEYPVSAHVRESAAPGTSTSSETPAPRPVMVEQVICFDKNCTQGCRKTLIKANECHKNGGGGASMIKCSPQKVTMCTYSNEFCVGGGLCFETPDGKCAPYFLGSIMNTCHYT
Procedure: as §1

[7] = test system: T. cruzi Tulahuen LacZ strain, intracellular amastigote forms; experiment: In vitro trypanocidal activity on intracellular amastigote forms (Tulahuen strain); format: cell-based, Trypanosoma cruzi; conditions: for SI (selective index): from EC50 (T. cruzi) and CC50 (LLCMK2)
Procedure: Cells were evaluated in 96-well plates. Cells from the LLCMK2 lineage were plated at a concentration of 5x10^4 cells mL^-1. Trypomastigote forms of the Tulahuen LacZ strain were added at a concentration of 5×10^5 parasites mL^-1 and placed in the incubator at 37°C with 5% CO2 for 24 h. After the incubation period, the trypomastigote forms present were removed by successive washes with PBS, remaining only as intracellular amastigote forms. Compounds were added at different concentrations (1.95 μM to 250 μM serial dilutions) and incubated for 72 h. At the end of this period, the substrate CPRG (chlorophenol red β-D-galactopyranoside, 400 μM in 0.3% Triton X-100, pH 7.4) was added. […] Benznidazole was used as a positive control in the same concentrations as the substances, and DMSO as a negative control. Compounds were solubilized in DMSO. The selectivity index (SI) was calculated using the formula: […]. All statistical analyses were done with the program GraphPad Prism v.5.

[8] = Mammalian cytotoxicity assay (MTT); format: cell-based; conditions: rhesus monkey, LLCMK2 cells;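 also: Read-out is absorbance at 570 nm of formazan taken up in DMSO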
Procedure: LLCMK2 cells were cultured in 96-well plates at a concentration of 5 x 10^4 cells/ml. After 48 h, the plates were washed twice with PBS and 200 μL RPMI medium was added with serial dilutions of the compounds and benznidazole (1.95 μM to 250 μM) in triplicate. After 72 h at 37 °C, the cytotoxic activity of the compounds was determined by the classical MTT [3- (4,5-dimethylthiazol-2-yl) -2,5-diphenyltetrazolium bromide] method. Briefly, 50 μL MTT dissolved in PBS (2.0 mg mL^-1) was added to each well and the plates were incubated for 4 h at 37 °C. The formed formazan crystals were dissolved with DMSO (50 μL/well) and the absorbance of the samples was measured by spectrophotometer at 570 nm after 30 min.

[9] = SD lower than 15%, read-out: pKi Cz (converted)
[10] = SD lower than 15%, read-out: pKi LmCPB (converted)
[11] = Trypanosoma cruzi, TULAHUEN, 72 h, amastigote, Tulahuen strain, 72 h, Table 2, read-out: EC50 trypanocidal activity
[12] = Trypanosoma cruzi, TULAHUEN, T. cruzi amastigote form, S1 Table, read-out: pEC50 (converted)
[13] = LLCMK2, 72 h, MTT, Table 2, read-out: CC50 cytotoxicity
[14] = S1 Table, maximum concentration used 250 µM, read-out: CC50
[15] = Trypanosoma cruzi, TULAHUEN, S1 Table, maximum concentration used 250 µM, read-out: EC50 T. cruzi
[16] = Trypanosoma cruzi, TULAHUEN, read-out: EC50 T. cruzi, S1 Table, maximum concentration used 250 µM
[17] = Trypanosoma cruzi, TULAHUEN, read-out: pEC50, T. cruzi amastigote form (converted), S1 Table

| SMILES | Ki [2] [µM] | Ki [3] [µM] | Ki [4] [µM] | Ki [5, 9] [µM] | Ki [6, 10] [µM] | EC50 [7, 11] [µM] | EC50 [7, 12] [µM] | SI (selective index) ([7]; Table 2) | CC50 at 72 h [8, 13] [µM] | CC50 at 72 h [8, 14] [µM] | melting point [°C] | EC50 [7, 16] [µM] | EC50 [7, 17] [µM] | Ki [1] [µM] | also measured |
| --- | --- | --- | --- | --- | --- | --- | --- | --- | --- | --- | --- | --- | --- | --- | --- |
| CC(C)CC(C#N)NC(=O)[C@H](Cc1ccccc1)NC(=O)c1cc(C(C)(C)C)nn1C (stereo in doubt) [Compound 53, 3-(tert-Butyl)-N-((S)-1-(((S)-1-cyano-3-methylbutyl)amino)-1-oxo-3-phenylpropan-2-yl)-1-methyl-1H-pyrazole-5-carboxamide] | 1 | 0.1 | 1 | 0.316 | 0.398 | 26 ± 2.6 | 25.1 | > 3.8 | > 100 | 132 | 91 to 94 | – | – | – | remaining activity at 10 µM [1]: 90% |
| O=C(Cn1ccnc1[N+](=O)[O-])NCc1ccccc1 [Benznidazole, reference compound] | – | – | – | – | – | 4.4 ± 0.47 | 3.98 | > 23 | > 100 | – | – | – | – | – | EC50 [7, 15]: 4.3 µM |
| N#CC1(NC(=O)[C@H](Cc2ccccc2)NC(=O)c2ccccc2)CC1 [Compound 6] | 0.398 | – | 0.0794 | – | 0.251 | – | – | – | – | – | – | > 100 | > 100 | – | pKi CatL [3]: 7.4 |
| N#CC1(NC(=O)[C@H](Cc2cccc(Cl)c2)NC(=O)c2ccccc2)CC1 [Compound 7, (S)-N-(3-(3-Chlorophenyl)-1-((1-cyanocyclopropyl)amino)-1-oxopropan-2-yl)benzamide] | 0.631 | 0.0501 | 0.02 | 0.126 | 0.631 | – | – | – | – | 4 | 213 to 215 | > 100 | > 100 | 3.16 | – |
| Cn1nc(C(C)(C)C)cc1C(=O)N[C@@H](Cc1cccc(Cl)c1)C(=O)NC1(C#N)CC1 [Compound 8, (S)-3-(tert-Butyl)-N-(3-(3-chlorophenyl)-1-((1-cyanocyclopropyl)amino)-1-oxopropan-2-yl)-1-methyl-1H-pyrazole-5-carboxamide] | 0.398 | 0.00251 | 0.2 | 0.0398 | 0.2 | – | – | – | – | > 100 | 152 to 154 | > 100 | > 100 | 3.98 | EC50 ([7]; Trypanosoma cruzi, TULAHUEN, amastigote forms of T. cruzi (Tuhaluen strain), Figs 12-14, unit inferred): > 100 µM |
| Cn1nc(C(C)(C)C)cc1C(=O)N[C@@H](Cc1ccccc1)C(=O)NC1(C#N)CC1 [Compound 9] | 0.316 | 0.00631 | 0.158 | 0.0501 | 0.0794 | – | – | > 1.4 | > 100 | – | – | – | 79.4 | 15.8 | EC50 ([7]; Trypanosoma cruzi, TULAHUEN, 72 h, read-out: EC50 trypanocidal activity, amastigote, Tulahuen strain, 72 h, Table 2): 71.8 µM; EC50 ([7]; amastigote, Tulahuen strain, 72 h, Table 2, read-out: EC50 trypanocidal activity): 72 ± 5.7 µM |
| Cn1nc(C(C)(C)C)cc1C(=O)N[C@@H](Cc1ccncc1)C(=O)NC1(C#N)CC1 [Compound 10, (S)-3-(tert-Butyl)-N-(1-((1-cyanocyclopropyl)amino)-1-oxo-3-(pyridin-4-yl)propan-2-yl)-1-methyl-1H-pyrazole-5-carboxamide] | 10 | 0.0251 | 2.51 | 0.251 | 0.398 | 67.6 ± 8.22 | – | > 1.5 | > 100 | – | – | – | 63.1 | – | remaining activity at 10 µM [1]: 93% |
| CC(C)C[C@H](NC(=O)c1cc(C(C)(C)C)nn1C)C(=O)NC1(C#N)CC1 [Compound 11] | 0.00501 | 0.0251 | 0.0398 | 0.0158 | 0.0501 | – | – | – | – | > 100 | – | > 100 | > 100 | 31.6 | difference in pKi, Cz ([5]; relative to compound 9, sign not given, direction by cell colour or wording): 0.5 |
| C[C@@H](OCc1ccccc1)[C@H](NC(=O)c1cc(C(C)(C)C)nn1C)C(=O)NC1(C#N)CC1 [Compound 12, N-((2S,3R)-3-(Benzyloxy)-1-((1-cyanocyclopropyl)amino)-1-oxobutan-2-yl)-3-(tert-butyl)-1-methyl-1H-pyrazole-5-carboxamide] | – | 1.26 | 1.26 | 7.94 | 3.16 | 32.7 ± 3.86 | – | > 3.1 | > 100 | – | 100 to 101 | – | 31.6 | 39.8 | remaining activity at 10 µM [2]: 96% |
| N#CC1(NC(=O)[C@H](Cc2ccccc2)NC(=O)c2ccnc3cc(Cl)ccc23)CC1 [Compound 13, (S)-7-Chloro-N-(1-((1-cyanocyclopropyl)amino)-1-oxo-3-phenylpropan-2-yl)quinoline-4-carboxamide] | – | 0.0631 | 0.2 | – | – | – | – | – | – | > 100 | 260 to 262 | > 100 | > 100 | 12.6 | remaining activity at 10 µM [2]: 81%; Ki [5]: 0.2 µM; Ki [6]: 0.126 µM |
| Cn1nc(C(C)(C)C)cc1C(=O)N[C@@H](Cc1ccccc1)C(=O)N[C@H](C#N)Cc1ccncc1 [Compound 55, 3-(tert-Butyl)-N-((S)-1-(((S)-1-cyano-2-(pyridin-4-yl)ethyl)amino)-1-oxo-3-phenylpropan-2-yl)-1-methyl-1H-pyrazole-5-carboxamide] | 0.316 | 0.00501 | 0.0631 | – | – | – | > 100 | – | – | > 100 | – | – | – | 15.8 | Ki [5]: 0.0316 µM; Ki [6]: 0.0631 µM; EC50 [7, 15]: > 100 µM |
| C[C@@H](OCc1ccccc1)[C@@H](C#N)NC(=O)[C@H](Cc1cccc(Cl)c1)NC(=O)c1cc(C(C)(C)C)nn1C [Compound 60, N-((S)-1-(((1R,2R)-2-(Benzyloxy)-1-cyanopropyl)amino)-3-(3-chlorophenyl)-1-oxopropan-2-yl)-3-(tert-butyl)-1-methyl-1H-pyrazole-5-carboxamide] | 1 | 0.00794 | 0.316 | 0.0631 | 0.158 | 4.9 ± 0.45 | 5.01 | > 20 | > 100 | 125 | – | – | – | 0.501 | fold increase in trypanocidal potency ([7]; compared with compound 9): 14.5 fold |
| C[C@@H](O)[C@@H](C#N)NC(=O)[C@H](Cc1cccc(Cl)c1)NC(=O)c1cc(C(C)(C)C)nn1C [Compound 69, 3-(tert-butyl)-N-((S)-3-(3-chlorophenyl)-1-(((1R,2R)-1-cyano-2-hydroxypropyl)amino)-1-oxopropan-2-yl)-1-methyl-1H-pyrazole-5-carboxamide] | 0.794 | 0.00631 | 0.251 | 0.126 | 1 | 30.6 ± 3.11 | 31.6 | – | > 100 | – | – | – | – | 6.31 | EC50 [7, 15]: 30.5 µM |
